Activity calls are given as the source filed them. The calls are words filed in the database; no cut-off is given here.
Legend:
[1] = target: Signal transducer and activator of transcription 3 (Homo sapiens) (UniProt P40763); test: Inhibition of STAT3 activation in human U-937 cells assessed as decrease in P-STAT3 at 100 uM by Western blot analysis; assay type: cell-based; settings: time 0-24 hrs, TDE = time-dependent effect
[2] = target: Tyrosine-protein kinase BTK (Homo sapiens) (UniProt Q06187); test: Inhibition of BTK (unknown origin) at 0.5 uM relative to control
[3] = target: Tyrosine-protein kinase ITK/TSK (Homo sapiens) (UniProt Q08881); test: Inhibition of ITK (unknown origin) at 0.5 uM assessed as competition rate relative to control
U-937 [4] = test: Induction of cell cycle arrest in human U-937 cells assessed as downregulation of Cyclic B1 at 0 to 300 nM measured after 24 hrs by western blot analysis; assay type: functional, cell-based; settings: dose 0-300 nM
[5] = target: Tyrosine-protein kinase Blk (Homo sapiens) (UniProt P51451); test: Inhibition of BLK (unknown origin) at 0.5 uM assessed as competition rate relative to control
[6] = AUC(0 to infinity) in 12 hr fasted SPF Sprague-Dawley rat at 15 mg/kg, po upon 2 hrs fasting post-administration upto 24 hrs; assay type: ADME, organism-based; parameters: dose 15 mg/kg, time < 24 hrs, route po; settings: in vivo
U-937 [7] = test: Induction of cell cycle arrest in human U-937 cells assessed as accumulation at S phase at 3.7 nM measured after 24 hrs by propidium iodide staining based flow cytometric analysis (reference value: 15.35%); assay type: functional
U-937 [8] = test: Induction of cell cycle arrest in human U-937 cells assessed as accumulation at S phase at 300 nM measured after 24 hrs by propidium iodide staining based flow cytometric analysis (reference value: 15.35%); assay type: functional
[9] = target: Receptor-type tyrosine-protein kinase FLT3 (Homo sapiens) (UniProt P36888); test: Inhibition of human FLT3 at 0.5 uM relative to control
U-937 [10] = test: Induction of cell cycle arrest in human U-937 cells assessed as accumulation at G2/M phase at 3.7 nM measured after 24 hrs by propidium iodide staining based flow cytometric analysis (reference value: 21.41%); assay type: functional
BaF3 [11] = test: cells; settings: Mus musculus, BaF3, 72 h
Description: Antiproliferative activity against mouse BaF3 parent cell measured after 72 hrs by CCK-8 assay

U-937 [12] = test: Induction of cell cycle arrest in human U-937 cells assessed as accumulation at G0/G1 phase at 33 nM measured after 24 hrs by propidium iodide staining based flow cytometric analysis (reference value: 62.95%); assay type: functional
[13] = Toxicity in CB17-SCID mouse xenografted with human U-937 cells assessed as body weight loss at 12.5 to 50 mg/kg, po twice daily for 10 days; assay type: organism-based; settings: in vivo, 240 h, dose 12.5-50 mg/kg, time 10 day
[14] = Half life in 12 hr fasted SPF Sprague-Dawley rat at 15 mg/kg, po upon 2 hrs fasting post-administration measured upto 24 hrs; assay type: ADME, organism-based; settings: in vivo
U-937 [15] = test: Induction of cell cycle arrest in human U-937 cells assessed as downregulation of CDK4 at 0 to 300 nM measured after 24 hrs by western blot analysis; assay type: functional, cell-based; settings: dose 0-300 nM
BaF3 [16] = test: cells; settings: Mus musculus, BaF3, 72 h; remark: listed apart in the source
U-937 [17] = test: Induction of cell cycle arrest in human U-937 cells assessed as accumulation at G0/G1 phase at 300 nM measured after 24 hrs by propidium iodide staining based flow cytometric analysis (reference value: 62.95%); assay type: functional
[18] = target: Receptor tyrosine-protein kinase erbB-2 (Homo sapiens) (UniProt P04626); test: Inhibition of HER2 (unknown origin) at 0.5 uM assessed as competition rate relative to control
[19] = target: Receptor tyrosine-protein kinase erbB-2 (Homo sapiens) (UniProt P04626); test: Inhibition of HER2 (unknown origin) at 0.5 uM relative to control
[20] = AUC(0 to infinity) in 12 hr fasted SPF Sprague-Dawley rat at 5 mg/kg, iv upon 2 hrs fasting post-administration measured upto 24 hrs; assay type: ADME, organism-based; parameters: dose 5 mg/kg, time < 24 hrs, route iv; settings: in vivo
[21] = target: T1, Tyrosine-protein kinase JAK3 (Homo sapiens) (UniProt P52333); test: Irreversible inhibition of JAK3 in human U-937 cells assessed as decrease in P-JAK3 phosphorylation at 200 uM pretreated for 8 hrs followed by compound washout by immunoblotting analysis; assay type: cell-based
T1 sequence (whole entry): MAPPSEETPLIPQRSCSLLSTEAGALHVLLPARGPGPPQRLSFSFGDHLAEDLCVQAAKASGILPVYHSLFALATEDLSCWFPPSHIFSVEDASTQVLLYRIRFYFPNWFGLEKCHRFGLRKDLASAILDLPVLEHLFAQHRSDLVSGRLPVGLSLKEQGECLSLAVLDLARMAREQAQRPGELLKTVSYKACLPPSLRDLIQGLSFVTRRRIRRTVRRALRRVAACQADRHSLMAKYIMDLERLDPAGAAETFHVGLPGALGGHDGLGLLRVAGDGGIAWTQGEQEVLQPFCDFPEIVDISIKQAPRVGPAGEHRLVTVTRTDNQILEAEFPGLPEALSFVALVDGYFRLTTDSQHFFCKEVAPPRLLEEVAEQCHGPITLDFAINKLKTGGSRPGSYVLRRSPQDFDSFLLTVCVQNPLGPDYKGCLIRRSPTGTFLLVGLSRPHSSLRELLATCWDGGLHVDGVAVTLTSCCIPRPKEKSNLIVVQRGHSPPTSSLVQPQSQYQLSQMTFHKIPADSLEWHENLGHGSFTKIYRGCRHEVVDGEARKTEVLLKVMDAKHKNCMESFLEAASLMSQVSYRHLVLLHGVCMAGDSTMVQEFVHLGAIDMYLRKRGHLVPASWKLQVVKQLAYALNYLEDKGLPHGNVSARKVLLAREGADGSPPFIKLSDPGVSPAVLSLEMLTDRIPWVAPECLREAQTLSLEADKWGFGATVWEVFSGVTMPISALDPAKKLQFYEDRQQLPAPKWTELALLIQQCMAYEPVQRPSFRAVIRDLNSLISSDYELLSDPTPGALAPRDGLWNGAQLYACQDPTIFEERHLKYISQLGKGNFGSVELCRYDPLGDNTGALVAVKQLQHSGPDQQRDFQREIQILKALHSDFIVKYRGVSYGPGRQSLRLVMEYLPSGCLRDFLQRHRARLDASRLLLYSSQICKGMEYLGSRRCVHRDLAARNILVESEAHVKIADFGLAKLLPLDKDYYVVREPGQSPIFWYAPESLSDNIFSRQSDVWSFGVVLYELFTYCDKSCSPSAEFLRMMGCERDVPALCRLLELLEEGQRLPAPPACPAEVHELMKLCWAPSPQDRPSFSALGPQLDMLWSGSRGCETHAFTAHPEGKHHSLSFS

U-937 [22] = test: Induction of cell cycle arrest in human U-937 cells assessed as downregulation of CDK6 at 0 to 300 nM measured after 24 hrs by western blot analysis; assay type: functional, cell-based; settings: dose 0-300 nM
U-937 [23] = test: Induction of cell cycle arrest in human U-937 cells assessed as downregulation of Cyclic D3 at 0 to 300 nM measured after 24 hrs by western blot analysis; assay type: functional, cell-based; settings: dose 0-300 nM
U-937 [24] = test: Induction of cell cycle arrest in human U-937 cells assessed as accumulation at S phase at 11 nM measured after 24 hrs by propidium iodide staining based flow cytometric analysis (reference value: 15.35%); assay type: functional

Receptor tyrosine-protein kinase erbB-2 (Homo sapiens), sequence (P04626 whole entry): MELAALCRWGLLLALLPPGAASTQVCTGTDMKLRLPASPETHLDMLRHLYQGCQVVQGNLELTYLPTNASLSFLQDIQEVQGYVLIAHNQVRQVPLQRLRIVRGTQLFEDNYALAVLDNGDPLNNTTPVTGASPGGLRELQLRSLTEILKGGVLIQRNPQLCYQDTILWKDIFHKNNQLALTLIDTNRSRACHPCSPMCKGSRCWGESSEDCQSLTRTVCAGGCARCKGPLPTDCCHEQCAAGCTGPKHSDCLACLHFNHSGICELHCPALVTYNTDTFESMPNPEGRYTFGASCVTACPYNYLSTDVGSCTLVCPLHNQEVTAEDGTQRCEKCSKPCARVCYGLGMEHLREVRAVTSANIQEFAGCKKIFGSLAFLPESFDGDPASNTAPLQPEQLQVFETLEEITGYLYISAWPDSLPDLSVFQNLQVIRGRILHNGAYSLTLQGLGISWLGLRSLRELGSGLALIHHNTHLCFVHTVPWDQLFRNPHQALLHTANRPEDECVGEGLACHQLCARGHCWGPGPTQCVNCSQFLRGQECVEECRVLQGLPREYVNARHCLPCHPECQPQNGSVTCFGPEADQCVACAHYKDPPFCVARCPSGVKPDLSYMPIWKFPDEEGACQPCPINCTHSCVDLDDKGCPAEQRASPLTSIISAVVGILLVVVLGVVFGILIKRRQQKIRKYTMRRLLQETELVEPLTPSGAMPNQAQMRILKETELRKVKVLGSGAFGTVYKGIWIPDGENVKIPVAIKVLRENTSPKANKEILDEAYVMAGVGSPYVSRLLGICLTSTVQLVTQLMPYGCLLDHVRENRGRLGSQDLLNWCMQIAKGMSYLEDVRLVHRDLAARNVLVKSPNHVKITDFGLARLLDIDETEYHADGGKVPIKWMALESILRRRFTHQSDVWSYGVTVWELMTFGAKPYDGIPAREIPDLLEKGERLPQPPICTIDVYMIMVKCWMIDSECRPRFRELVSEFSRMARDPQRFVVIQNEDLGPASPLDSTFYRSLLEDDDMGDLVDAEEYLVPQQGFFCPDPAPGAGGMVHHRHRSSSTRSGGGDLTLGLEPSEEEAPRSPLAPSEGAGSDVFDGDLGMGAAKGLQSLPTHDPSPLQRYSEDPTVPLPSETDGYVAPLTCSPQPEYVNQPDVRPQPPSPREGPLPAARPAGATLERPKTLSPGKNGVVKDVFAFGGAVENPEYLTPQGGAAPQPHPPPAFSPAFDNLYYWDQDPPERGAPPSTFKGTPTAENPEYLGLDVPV
Signal transducer and activator of transcription 3 (Homo sapiens), sequence (P40763 whole entry): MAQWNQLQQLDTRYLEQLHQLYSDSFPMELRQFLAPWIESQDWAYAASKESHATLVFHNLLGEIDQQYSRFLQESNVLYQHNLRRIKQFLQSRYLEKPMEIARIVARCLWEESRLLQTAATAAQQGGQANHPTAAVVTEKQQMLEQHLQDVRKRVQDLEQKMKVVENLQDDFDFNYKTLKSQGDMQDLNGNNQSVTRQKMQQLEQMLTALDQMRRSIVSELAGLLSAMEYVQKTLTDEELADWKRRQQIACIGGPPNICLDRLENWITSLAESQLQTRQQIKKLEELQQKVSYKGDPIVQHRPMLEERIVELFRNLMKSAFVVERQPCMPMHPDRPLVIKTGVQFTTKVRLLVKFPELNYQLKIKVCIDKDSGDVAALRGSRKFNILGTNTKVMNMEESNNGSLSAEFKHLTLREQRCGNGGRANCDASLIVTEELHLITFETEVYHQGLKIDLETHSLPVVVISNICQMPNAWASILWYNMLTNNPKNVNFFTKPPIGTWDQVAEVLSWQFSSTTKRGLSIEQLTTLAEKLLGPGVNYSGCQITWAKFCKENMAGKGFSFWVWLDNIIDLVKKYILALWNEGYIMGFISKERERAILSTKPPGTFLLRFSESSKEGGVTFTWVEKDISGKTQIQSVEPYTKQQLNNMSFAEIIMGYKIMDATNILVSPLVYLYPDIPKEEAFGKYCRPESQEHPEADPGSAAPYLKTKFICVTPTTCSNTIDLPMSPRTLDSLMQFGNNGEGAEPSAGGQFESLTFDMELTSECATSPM
Receptor-type tyrosine-protein kinase FLT3 (Homo sapiens), sequence (P36888 whole entry): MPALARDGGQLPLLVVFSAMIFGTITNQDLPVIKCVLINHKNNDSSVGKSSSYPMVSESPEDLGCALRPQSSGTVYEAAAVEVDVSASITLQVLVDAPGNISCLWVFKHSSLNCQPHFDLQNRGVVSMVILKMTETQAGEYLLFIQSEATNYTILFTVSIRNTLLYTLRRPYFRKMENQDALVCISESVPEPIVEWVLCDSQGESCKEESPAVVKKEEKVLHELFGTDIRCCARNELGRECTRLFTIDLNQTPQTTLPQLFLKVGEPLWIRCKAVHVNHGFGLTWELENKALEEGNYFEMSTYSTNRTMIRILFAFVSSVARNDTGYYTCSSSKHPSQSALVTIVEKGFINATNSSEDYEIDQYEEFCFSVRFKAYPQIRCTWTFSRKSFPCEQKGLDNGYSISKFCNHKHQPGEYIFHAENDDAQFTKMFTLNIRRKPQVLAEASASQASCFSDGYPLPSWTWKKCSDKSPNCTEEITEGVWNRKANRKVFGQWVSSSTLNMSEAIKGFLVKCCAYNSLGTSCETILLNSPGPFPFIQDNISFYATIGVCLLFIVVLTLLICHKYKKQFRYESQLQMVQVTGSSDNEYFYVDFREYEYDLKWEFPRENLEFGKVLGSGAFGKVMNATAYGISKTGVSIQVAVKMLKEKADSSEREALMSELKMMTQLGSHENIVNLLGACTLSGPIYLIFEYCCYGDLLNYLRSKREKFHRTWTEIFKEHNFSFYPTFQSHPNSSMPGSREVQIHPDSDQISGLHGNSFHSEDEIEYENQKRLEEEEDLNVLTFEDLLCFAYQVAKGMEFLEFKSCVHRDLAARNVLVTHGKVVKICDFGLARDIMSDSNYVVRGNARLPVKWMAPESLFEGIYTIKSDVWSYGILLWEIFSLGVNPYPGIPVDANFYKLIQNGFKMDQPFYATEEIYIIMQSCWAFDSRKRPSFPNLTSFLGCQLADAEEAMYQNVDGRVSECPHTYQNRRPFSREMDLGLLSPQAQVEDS
Tyrosine-protein kinase Blk (Homo sapiens), sequence (P51451 2-505 limits assumed): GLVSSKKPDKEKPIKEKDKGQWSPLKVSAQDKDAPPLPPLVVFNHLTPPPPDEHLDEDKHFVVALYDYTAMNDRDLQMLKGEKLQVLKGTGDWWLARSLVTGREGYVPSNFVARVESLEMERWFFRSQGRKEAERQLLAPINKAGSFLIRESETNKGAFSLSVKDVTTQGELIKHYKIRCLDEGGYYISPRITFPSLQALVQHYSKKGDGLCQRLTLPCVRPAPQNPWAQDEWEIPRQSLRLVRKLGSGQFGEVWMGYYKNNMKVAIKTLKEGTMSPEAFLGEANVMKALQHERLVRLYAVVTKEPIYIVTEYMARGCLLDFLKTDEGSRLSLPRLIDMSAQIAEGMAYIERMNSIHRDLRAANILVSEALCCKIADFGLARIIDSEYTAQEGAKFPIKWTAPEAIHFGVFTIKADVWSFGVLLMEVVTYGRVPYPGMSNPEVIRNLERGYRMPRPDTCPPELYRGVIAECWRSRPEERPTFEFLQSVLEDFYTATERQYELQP
Tyrosine-protein kinase BTK (Homo sapiens), sequence (Q06187 whole entry): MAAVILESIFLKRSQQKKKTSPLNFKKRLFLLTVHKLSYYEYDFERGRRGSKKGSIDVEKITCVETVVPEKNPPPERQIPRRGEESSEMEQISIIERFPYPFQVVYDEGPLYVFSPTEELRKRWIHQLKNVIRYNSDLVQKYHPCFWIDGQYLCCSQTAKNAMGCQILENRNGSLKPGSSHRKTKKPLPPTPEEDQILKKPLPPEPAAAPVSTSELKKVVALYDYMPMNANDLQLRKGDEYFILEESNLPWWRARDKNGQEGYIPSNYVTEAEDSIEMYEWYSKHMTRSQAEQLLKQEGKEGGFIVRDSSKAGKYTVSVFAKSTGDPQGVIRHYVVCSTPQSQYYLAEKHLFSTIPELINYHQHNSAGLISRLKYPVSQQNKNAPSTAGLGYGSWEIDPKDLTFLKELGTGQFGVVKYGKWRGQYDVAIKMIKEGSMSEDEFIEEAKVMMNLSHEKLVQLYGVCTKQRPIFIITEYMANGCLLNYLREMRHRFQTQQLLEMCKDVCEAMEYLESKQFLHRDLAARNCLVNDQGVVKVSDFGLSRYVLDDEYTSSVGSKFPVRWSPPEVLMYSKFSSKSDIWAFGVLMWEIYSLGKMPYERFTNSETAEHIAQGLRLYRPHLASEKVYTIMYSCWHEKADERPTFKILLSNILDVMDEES
Tyrosine-protein kinase ITK/TSK (Homo sapiens), sequence (Q08881 whole entry): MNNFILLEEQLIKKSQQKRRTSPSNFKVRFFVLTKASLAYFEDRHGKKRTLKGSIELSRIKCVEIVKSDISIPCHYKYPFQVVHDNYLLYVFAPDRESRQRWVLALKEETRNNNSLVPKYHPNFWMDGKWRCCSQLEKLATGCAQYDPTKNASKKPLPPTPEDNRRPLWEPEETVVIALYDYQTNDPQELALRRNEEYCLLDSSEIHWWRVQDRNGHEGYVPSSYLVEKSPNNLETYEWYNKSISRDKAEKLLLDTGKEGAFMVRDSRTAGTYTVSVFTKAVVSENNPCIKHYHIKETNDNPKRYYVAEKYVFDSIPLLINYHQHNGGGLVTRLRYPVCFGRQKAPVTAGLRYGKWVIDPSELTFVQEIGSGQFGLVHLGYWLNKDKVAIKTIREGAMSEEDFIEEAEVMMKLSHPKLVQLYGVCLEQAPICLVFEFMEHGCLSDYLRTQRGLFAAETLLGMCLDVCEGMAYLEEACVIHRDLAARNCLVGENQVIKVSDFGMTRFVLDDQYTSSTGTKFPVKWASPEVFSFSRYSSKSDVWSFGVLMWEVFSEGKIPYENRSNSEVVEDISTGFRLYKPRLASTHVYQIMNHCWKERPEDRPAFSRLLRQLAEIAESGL

Which inhibition [1] does the source give for `C=CC(=O)Nc1cc(Nc2ncc(Cl)c(O[C@@H]3CO[C@H]4[C@@H]3OC[C@H]4OC)n2)ccc1N(C)CCN(C)C` here?
Its inhibition is “Tde”.

And the inhibition [2]?
The inhibition was 114%.

What about the inhibition [3] of the same compound?
Its inhibition is 40%.

And the Activity (U-937 [4])?
Its Activity is “Active”.

And the inhibition [5]?
Its inhibition is 40%.

What about the AUC(0-inf) [6] of the same compound?
The AUC(0-inf) was 334 ng·h/mL.

And the Activity (U-937 [7])?
The Activity was 15.23%.

What about the Activity (U-937 [8]) of the same compound?
Its Activity is 7.5%.

And the inhibition [9]?
Its inhibition is 23%.

And the Activity (U-937 [10])?
The Activity was 23.11%.

What about the IC50 (BaF3 [11]) of the same compound?
Its IC50 is 165 nM.

And the Activity (U-937 [12])?
The Activity was 64.92%.

And the Activity [13]?
Its Activity is “Non-Toxic”.

And the half-life [14]?
The half-life was 58.8 min.

And the Activity (U-937 [15])?
Its Activity is “Active”.

And the IC50 (BaF3 [16])?
Its IC50 is 22.9 nM.

What about the Activity (U-937 [17]) of the same compound?
The Activity was 76.88%.

And the inhibition [18]?
Its inhibition is 40%.

What about the inhibition [19] of the same compound?
The inhibition was 115%.

And the AUC(0-inf) [20]?
The AUC(0-inf) was 537 ng·h/mL.

And the inhibition [21]?
The inhibition was “Active”.

And the Activity (U-937 [22])?
Its Activity is “Active”.

What about the Activity (U-937 [23]) of the same compound?
The Activity was “Active”.

What about the Activity (U-937 [24]) of the same compound?
The Activity was 15.18%.
